According to ChEMBL document CHEMBL1201862, “PubChem BioAssay data set” (2004):
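Test compounds were applied to cells in 96-well plates for 48 hours at 5 doses. Here, GI50 denotes the concentration required for 50% inhibition of growth.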 Active and inactive are the calls of the source. No stated cut-off is given here; in the data, active = GI50 up to about 1.1 µM and inactive = higher.

Columns and labels:
Test in all cases: NCI tumour cell line growth inhibition, 48 h
A498 = test system: A498
A549 = test system: A549
ACHN = test system: ACHN
BT-549 = test system: BT-549
CCRF-CEM = test system: CCRF-CEM
COLO 205 = test system: COLO 205
EKVX = test system: EKVX
HL-60 = test system: HL-60
MDA-MB-231 = test system: MDA-MB-231
MDA-N = test system: MDA-N
NCI-H460 = test system: NCI-H460
NCI/ADR-RES = test system: NCI/ADR-RES
OVCAR-4 = test system: OVCAR-4
SF-539 = test system: SF-539
SK-OV-3 = test system: SK-OV-3
SR = test system: SR
SW-620 = test system: SW-620
U-251 = test system: U-251
M14 = test system: M14
RPMI-8226 = test system: RPMI-8226

Measured: GI50

COc1ccc(CC/N=C2\OCc3ccccc32)cc1OC
inactive: A498 > 100 µM | A549 46.3 µM | ACHN 52.5 µM | BT-549 > 100 µM | CCRF-CEM 29.1 µM | COLO 205 49.3 µM | EKVX 76.2 µM | HL-60 5.42 µM | MDA-MB-231 61.8 µM | MDA-N 38.8 µM | NCI-H460 45.5 µM | NCI/ADR-RES 67 µM | OVCAR-4 59 µM | SF-539 20.7 µM | SK-OV-3 30.5 µM | SR 11.5 µM | SW-620 54.5 µM | U-251 > 100 µM

C[C@@H](NC(=O)Nc1cccc(C(=O)Nc2cc(C(C)(C)C)ccc2C(=O)O)n1)c1ccccc1
inactive: A498 64.1 µM | A549 44.3 µM | ACHN 35.2 µM | BT-549 37 µM | COLO 205 27.3 µM | EKVX 52.5 µM | HL-60 45.3 µM | M14 31 µM | MDA-MB-231 23.4 µM | MDA-N 38.4 µM | NCI-H460 52.1 µM | NCI/ADR-RES > 100 µM | OVCAR-4 50.1 µM | RPMI-8226 41.8 µM | SK-OV-3 43.8 µM | SR 28.4 µM | SW-620 39 µM | U-251 16.1 µM

O=C1c2ccccc2C(=O)N1CCCCCCNOCCCN1C(=O)c2ccccc2C1=O
inactive: A498 21.6 µM | A549 32.4 µM | ACHN 36.7 µM | BT-549 30.3 µM | CCRF-CEM 25.6 µM | COLO 205 38.7 µM | EKVX 25.6 µM | M14 21.3 µM | MDA-MB-231 57.5 µM | MDA-N 31.6 µM | NCI-H460 44.2 µM | NCI/ADR-RES 26.4 µM | OVCAR-4 22.3 µM | RPMI-8226 14.4 µM | SK-OV-3 56.9 µM | SR 33.4 µM | SW-620 > 100 µM | U-251 63 µM

NC(=O)SCC(=O)Nc1ccc2cccc3c2c1CC3
inactive: A498 91 µM | A549 > 100 µM | ACHN 22.8 µM | BT-549 16.2 µM | CCRF-CEM 8.02 µM | COLO 205 > 100 µM | EKVX > 100 µM | HL-60 3.9 µM | M14 21.8 µM | MDA-MB-231 6.76 µM | MDA-N 21.8 µM | NCI/ADR-RES 42.6 µM | OVCAR-4 17.3 µM | RPMI-8226 20.9 µM | SF-539 15.1 µM | SR 8.71 µM | SW-620 12.2 µM | U-251 5.33 µM

CC/C(=N/O)c1ccc(Br)s1
inactive: A498 > 100 µM | A549 > 100 µM | ACHN 92 µM | BT-549 > 100 µM | CCRF-CEM 41.1 µM | COLO 205 > 100 µM | EKVX 5.61 µM | HL-60 28.6 µM | M14 > 100 µM | MDA-MB-231 > 100 µM | MDA-N > 100 µM | NCI-H460 > 100 µM | NCI/ADR-RES > 100 µM | OVCAR-4 > 100 µM | SF-539 27.1 µM | SK-OV-3 > 100 µM | SR 40.3 µM | SW-620 > 100 µM | U-251 > 100 µM

CCOC(=O)c1c(CN2CCCC2)n(-c2ccccc2)c2cc(Br)c(O)cc12
inactive: A498 16.4 µM | A549 16 µM | ACHN 17.8 µM | BT-549 36.1 µM | CCRF-CEM 2.06 µM | COLO 205 10.5 µM | EKVX 17 µM | HL-60 9.44 µM | M14 15.5 µM | MDA-MB-231 17.8 µM | MDA-N 17.2 µM | NCI-H460 17 µM | NCI/ADR-RES 22.4 µM | OVCAR-4 14.3 µM | RPMI-8226 16.2 µM | SK-OV-3 25.8 µM | SR 18.7 µM | SW-620 17.7 µM | U-251 16.3 µM

OC1CCC(COC(c2ccccc2)(c2ccccc2)c2ccccc2)O1 (stereo not given)
inactive: A498 20.2 µM | A549 17.7 µM | ACHN 17 µM | BT-549 23.8 µM | CCRF-CEM 14.2 µM | COLO 205 17.1 µM | EKVX > 10 µM | HL-60 18.2 µM | M14 18.7 µM | MDA-MB-231 16.6 µM | MDA-N 18.7 µM | NCI-H460 21 µM | NCI/ADR-RES 17.7 µM | RPMI-8226 19.5 µM | SF-539 17.3 µM | SK-OV-3 20.2 µM | SR > 10 µM | SW-620 17.5 µM | U-251 18.8 µM

NS(=O)(=O)c1c(O)c2ccccc2oc1=O
inactive: A498 > 100 µM | A549 > 100 µM | ACHN > 100 µM | BT-549 > 100 µM | CCRF-CEM > 100 µM | COLO 205 > 100 µM | EKVX > 100 µM | HL-60 > 100 µM | M14 > 100 µM | MDA-MB-231 > 100 µM | MDA-N > 100 µM | NCI-H460 > 100 µM | NCI/ADR-RES > 100 µM | OVCAR-4 > 100 µM | RPMI-8226 > 100 µM | SF-539 > 100 µM | SR > 100 µM | SW-620 > 100 µM | U-251 > 100 µM

NCCNc1ncnc2ccc(Cl)cc12
inactive: A498 37.9 µM | A549 93.8 µM | ACHN 66.4 µM | BT-549 > 100 µM | CCRF-CEM > 100 µM | COLO 205 49.3 µM | EKVX > 100 µM | HL-60 > 100 µM | M14 > 100 µM | MDA-MB-231 93.1 µM | MDA-N 99.1 µM | NCI-H460 32.8 µM | NCI/ADR-RES > 100 µM | OVCAR-4 > 100 µM | RPMI-8226 96.2 µM | SK-OV-3 > 100 µM | SR 45.7 µM | SW-620 72.3 µM | U-251 > 100 µM

COc1ccc(O[C@H](CO)C[C@@H]2COC(C)(C)O2)cc1
inactive: A498 > 100 µM | A549 > 100 µM | ACHN > 100 µM | BT-549 > 100 µM | CCRF-CEM > 100 µM | COLO 205 > 100 µM | EKVX > 100 µM | M14 > 100 µM | MDA-MB-231 > 100 µM | MDA-N > 100 µM | NCI-H460 > 100 µM | NCI/ADR-RES > 100 µM | OVCAR-4 > 100 µM | RPMI-8226 > 100 µM | SF-539 > 100 µM | SK-OV-3 > 100 µM | SR > 100 µM | SW-620 > 100 µM | U-251 > 100 µM

Clc1ccc(-c2nn3c(CCCCCCCCc4nnc5sc(-c6ccc(Cl)cc6)nn45)nnc3s2)cc1
inactive: A498 24.8 µM | A549 13.2 µM | ACHN 30.1 µM | BT-549 24.8 µM | CCRF-CEM 11.8 µM | COLO 205 26.6 µM | EKVX 20 µM | M14 18.7 µM | MDA-MB-231 27 µM | MDA-N 18.2 µM | NCI-H460 26.9 µM | NCI/ADR-RES 21 µM | OVCAR-4 8.85 µM | RPMI-8226 10.3 µM | SF-539 19.9 µM | SK-OV-3 30.1 µM | SR 17.1 µM | SW-620 29.2 µM | U-251 15.9 µM

C=CCc1c(O)c2ccccc2[nH]c1=O
inactive: A498 > 100 µM | A549 > 100 µM | ACHN > 100 µM | BT-549 > 100 µM | CCRF-CEM > 100 µM | COLO 205 > 100 µM | EKVX > 100 µM | HL-60 > 100 µM | MDA-MB-231 > 100 µM | MDA-N > 100 µM | NCI-H460 > 100 µM | NCI/ADR-RES > 100 µM | OVCAR-4 > 100 µM | RPMI-8226 > 100 µM | SF-539 > 100 µM | SR > 100 µM | SW-620 > 100 µM | U-251 > 100 µM

OCC(O)C(Cl)CCl (stereo not given)
inactive: A498 > 10 µM | A549 > 100 µM | ACHN > 100 µM | BT-549 > 100 µM | CCRF-CEM > 100 µM | COLO 205 > 100 µM | EKVX > 100 µM | HL-60 > 100 µM | M14 > 100 µM | MDA-MB-231 > 100 µM | MDA-N > 100 µM | NCI-H460 > 100 µM | NCI/ADR-RES > 100 µM | OVCAR-4 > 100 µM | SF-539 > 100 µM | SK-OV-3 > 100 µM | SR > 100 µM | SW-620 > 100 µM | U-251 > 100 µM

CCOC(=O)NC(Nc1ccc(C(=O)OCC)cc1)(C(F)(F)F)C(F)(F)F
inactive: A498 > 100 µM | A549 50.9 µM | ACHN 42.7 µM | BT-549 > 100 µM | CCRF-CEM 6.58 µM | COLO 205 > 100 µM | HL-60 > 100 µM | M14 > 100 µM | MDA-MB-231 > 100 µM | MDA-N 49.8 µM | NCI-H460 66.8 µM | NCI/ADR-RES > 100 µM | OVCAR-4 > 100 µM | RPMI-8226 > 100 µM | SF-539 > 100 µM | SK-OV-3 > 100 µM | SR 86.3 µM | SW-620 61.4 µM | U-251 68.1 µM

COC(=O)c1ccc(OCc2ccc3nc(-c4ccccc4)c(Cl)nc3c2)cc1
inactive: A498 > 100 µM | A549 86.9 µM | ACHN 48.8 µM | BT-549 > 100 µM | CCRF-CEM > 100 µM | COLO 205 76.2 µM | EKVX > 100 µM | HL-60 40.6 µM | M14 > 100 µM | MDA-MB-231 23.2 µM | MDA-N > 100 µM | NCI-H460 > 100 µM | NCI/ADR-RES 65.2 µM | OVCAR-4 62.1 µM | RPMI-8226 > 100 µM | SF-539 33.1 µM | SR > 100 µM | SW-620 > 100 µM | U-251 27.7 µM
